Non-standard residues stand in square brackets, D forms with d. Residues, ends and D or L forms follow the SMILES beside them. Dip = N[C@H](C(=O)O)C(c1ccccc1)c1ccccc1
Tests used:
CCRF-CEM cells [1] = experiment: In vitro cytotoxicity (MTS) in CCRF-CEM cells; type: cell-based, human; conditions: 25 µM, MTS, n = 3
Method: SK-OV-3, CCRF-CEM, HEK-293, MDA-MB-468, LLC-PK1, and MES-SA were used to determine the cytotoxicity of the synthesized linear and cyclic peptides. About 5000, 10,000, and 50,000 cells were seeded for SK-OV-3, HEK-293, and CCRF-CEM cells, respectively, in 0.1 mL of medium per well of 96-well plates. An appropriate medium was used for each cell line (SK-OV-3: McCoy’s 5A with L-glutamine containing fetal bovine serum (FBS) (10%) and penicillin or streptomycin (1%); CCRF-CEM: RPMI-1640 medium with L-glutamine and sodium bicarbonate containing FBS (10%) and penicillin or streptomycin (1%); MDA-MB-468 cells: DMEM/F12 (1:1) (1×) with L-glutamine and 15 mM HEPES containing FBS (10%) and penicillin or streptomycin (1%); LLC-PK1 cells: Dulbecco’s Modified Eagle’s Medium with 4500 mg/L glucose, L-glutamine and sodium bicarbonate, without sodium pyruvate liquid containing FBS (10%) and penicillin or streptomycin (1%); MES-SA cells: consisting of half SK-OV-3 and half CCRF-CEM media; and HEK-293 cells: Minimum Essential Medium Eagle with Earle’s salts and sodium bicarbonate, without L-glutamine containing FBS (10%) and penicillin or streptomycin (1%)). Then, 20 µL of peptides containing 5% DMSO in water were added to each well.
Adhesive cells were detached with 0.05% trypsin/EDTA after 15 min. The suspended cells were seeded in the medium 24 h prior to the experiment according to the previously reported procedure. The medium was changed before adding the peptides for adherent cells. Each concentration 5, 10, 25, 50, and 166 µM (containing 0.8% DMSO) had triplicate wells to minimize possible errors. […] The cell viability was measured by utilizing Multi-Mode Microplate Reader (SpectraMax M5 model, Molecular Devices, San Jose, CA, USA) after adding 20 µL of the MTS reagent to each well and incubating for 3 additional hours. […] The protocol manager was selected “endpoint” on the spectrophotometer’s software (SoftMax Pro 7). The 96-well plates were inserted inside spectrophotometer, and the data were acquired. The percentage of cell viability was calculated using the following equation:(1) =(Average OD values of samples treated with the compound /Average OD values of no treatment samples )∗100

Dynamic light scattering = type: physicochemical; conditions: DLS, 10 µM, 25 °C
Method: The samples were prepared in 10 µM concentration and were incubated for approximately 2 h after thawing from a freezer (0 to −18 °C). Samples were analyzed by dynamic light scattering (DLS) for particle sizes and the polydispersity index (PI). The data were acquired by using a Zetasizer Nano ZS (Malvern, Worcestershire, UK), which has a 0.3 nm to 10 µm particle size range and was equipped with a laser beam (λ = 633 nm; 4 mW) and a scattered light detector positioned at an angle of 173° (noninvasive backscatter) in order to unmask scattered light signals of low intensity originated by the smaller particles. The analytical model was based on protein analysis. The sensitivity of the device is reported to be at 0.1 mg/mL (lysozyme). The refractive index and absorption were set at 1.450 and 0.001 for the material. The refractive index, viscosity, and temperature were set at 1.33, 0.8872, and 25 °C for dispersant. Particle sizes and PI measurements were made in disposable cuvettes (ZEN0040) at 25 °C and variable runs per measurement.

CCRF-CEM cells [2] = experiment: Cellular uptake by flow cytometry in CCRF-CEM cells; type: cell-based, human; conditions: 3 h
Method: CCRF-CEM and SK-OV-3 cells were used to measure the cellular uptake of a fluorescent-labeled phosphopeptide (F’-GpYEEI) (2 µM), stavudine (F’-d4T) (2 µM) lamivudine (F’-3TC) (1–2 µM), emtricitabine (F’-FTC) (2 µM), and siRNA (F’-siRNA) (36 nM) with the least toxic concentration for each linear and the cyclic peptide (10 µM). The uptake was measured in the presence and absence of the peptides. The SK-OV-3 (0.5 million) and CCRF-CEM (a million) cells were incubated in each well of 6-well plates with the synthesized peptide and the fluorescent-labeled compound in one well. Another well contained the fluorescent-labeled compound alone for 3 h in an incubator (37 °C in a humidified atmosphere of 5% CO2). […] For more details, please refer back to the cytotoxicity method described above.
The cells were transferred to FACS analysis tubes after being washed with phosphate-buffered saline (PBS). The cells were centrifuged 2500 RPM for 5 min with Fisher Scientific accuSpin Micro 17 to precipitate the cells and to allow replacing the supernatant. The cells were then vortexed with Nerl Blood Bank Saline pH 7–7.2 (flow cytometry buffer) and transferred to the tube through a sterile cell strainer 40 µm Nylon Mesh. Finally, the cells were resuspended in flow cytometry buffer and analyzed by flow cytometry (FACSVerse model, Becton Dickinson, San Jose, CA, USA) using the FITC channel and the BD FACSuite software. The device was washed before each experiment, and the flow rate was set at medium. Finally, the cells were analyzed by using FITC channel […] argon laser for the excitation and the emitted 519 nm fluorescence for detection. The data presented was based on the FITC-A mean intensity signal for 10,000 cells collected. All assays were performed in triplicates. Results were evaluated to determine whether the peptides are facilitating the fluorescence compound to cross the membrane.
To determine the mechanism of the cellular uptake, F’-[K(DipR)5] or the physical mixture of the F’-GpYEEI and [DipR]5 were used to measure the fluorescence in the treated CCRF-CEM cells. F’-[K(DipR)5] (5 or 10 µM) or the physical mixture of the F’-GpYEEI (2 µM) and [DipR]5 (5 or 10 µM) were incubated with CCRF-CEM cells over 3 h. After each incubation, the medium containing the peptide and cells was removed. The same protocol as the cellular uptake study was used to prepare the cells as described above. Finally, the cells were resuspended in the buffer and analyzed by flow cytometry using the FITC channel and the BD FACSuite software. The data presented was based on the percentage of FITC-A mean intensity signal for 10,000 cells collected. All assays were performed in triplicates.

Z average size (Dynamic light scattering): 200.6 nm
polydispersity index (PI) (Dynamic light scattering): 0.359
Compound: N=C(N)NCCC[C@@H]1NC(=O)[C@H](C(c2ccccc2)c2ccccc2)NC(=O)[C@H](CCCNC(=N)N)NC(=O)[C@H](C(c2ccccc2)c2ccccc2)NC(=O)[C@H](CCCNC(=N)N)NC(=O)[C@H](C(c2ccccc2)c2ccccc2)NC(=O)[C@H](CCCNC(=N)N)NC(=O)[C@H](C(c2ccccc2)c2ccccc2)NC(=O)[C@H](CCCNC(=N)N)NC(=O)[C@H](C(c2ccccc2)c2ccccc2)NC1=O [[DipR]5] (cyclo([Dip]R[Dip]R[Dip]R[Dip]R[Dip]R))
reduction of cell proliferation (CCRF-CEM cells [1]; 24 h incubation): 64%
reduction of cell proliferation (CCRF-CEM cells [1]; 72 h incubation): 84%
increase of cellular uptake of F′-3TC vs cargo alone (CCRF-CEM cells [2]; F’-3TC 2 µM, peptide 10 µM, flow cytometry, n = 3): 14 fold
increase of cellular uptake of F’-FTC vs cargo alone (CCRF-CEM cells [2]; F’-FTC 2 µM, peptide 10 µM, flow cytometry, n = 3): 13 fold
increase of cellular uptake of F’-GpYEEI (CCRF-CEM cells [2]; F’-GpYEEI 2 µM, peptide 5 µM, n = 3): 43 fold
cellular uptake of F’-GpYEEI relative to [R5K]W7A (CCRF-CEM cells [2]; side-by-side comparison, F’-GpYEEI 2 µM, peptides 10 µM): 5 fold

— article PMC8997995, “Amphiphilic Cell-Penetrating Peptides Containing Natural and Unnatural Amino Acids as Drug Delivery Agents” (Cells, 2022)
